Results from patent US20230069963A1, “PYRAZOLO[1,5-A]PYRIMIDINE MACROCYCLIC COMPOUND” (priority 2018, published 2023).
Counter-ions that a name gives are not always drawn.

What follows are compounds tested on RSV ATCC VR-1540 (A2) (assay: microbe, parasite or virus in culture). Conditions: human respiratory syncytial virus, HEp-2, 96 h; Hep2 cells, incubated for 4 days, CPE detected with XTT assay (absorbance 450 nm); read-out: EC50 (nmol/L) against RSV A2 strain.
Type: cell-based

| Compound | EC50 [nmol/L] |
| --- | --- |
| CN1CCNC(C(F)(F)F)COc2ccc(Cl)cc2C(=O)N2CCCCC2c2cc3nc(N4CC(N)C4)cc1n3n2 (single isomer, unassigned) [Example 338] | 2.37 |
| CCC1c2cc3nc(N4CCC(N)C4)cc(n3n2)N(C)CCCCCOc2ccc(C)cc2C(=O)N1C (stereo in doubt) [Example 230, (18S)-3-[(3S)-3-aminopyrrolidin-1-yl]-18-ethyl-5,14,17-trimethyl-5,6,7,8,9,10,17,18-octahydro-16H-19,1-(metheno)pyrimido[6,1-h][1,7,9,10,13]benzoxatetraazacyclohexadecin-16-one] | 11.8 |
| CN1CCNC(=O)COc2ccc(F)cc2C(=O)N2CCCC[C@H]2c2cc3nc(N4CC(O)C4)cc1n3n2 [Example 3, (18aS)-2-fluoro-13-(3-hydroxyazetidin-1-yl)-J 1-methyl-8,9,10,11,19,20,21,22-octahydro-18aH,24H-18,15-(metheno)pyrido[2,1-l]pyrimido[6,1-h][1,4,7,9,10,13]benzoxapentaazacyclohexadecine-7,24(6H)-dione] | ~0.81 |
| CN1CCNC(=O)COc2ccc(F)cc2C(=O)N2CCCC[C@H]2c2cc3nc(N4CC(N)C4)cc1n3n2 [Example 4, (18aS)-13-(3-aminoazetidin-1-yl)-2-fluoro-11-methyl-8,9,10,11,19,20,21,22-octahydro-18aH,24H-18,15-(metheno)pyrido[2,1-l]pyrimido[6,1-h][1,4,7,9,10,13]benzoxapentaazacyclohexadecine-7,24(6H)-dione] | 2.71 |
| CNC1CN(c2cc3n4nc(cc4n2)[C@@H]2CCCCN2C(=O)c2cc(F)ccc2OCC(=O)NCCN3C)C1 [Example 5, (18aS)-2-fluoro-11-methyl-13-[3-(methylamino)azetidin-1-yl]-8,9,10,11,19,20,21,22-octahydro-18aH,24H-18,15-(metheno)pyrido[2,1-l]pyrimido[6,1-h][1,4,7,9,10,13]benzoxapentaazacyclohexadecine-7,24(6H)-dione] | 7.02 |
| CN1CCN(C)c2cc(N3CC(N)C3)nc3cc(nn23)[C@@H]2CCCCN2C(=O)c2cc(F)ccc2OCC1=O [Example 8, (18aS)-13-(3-aminoazetidin-1-yl)-2-fluoro-8,11-dimethyl-8,9,10,11,19,20,21,22-octahydro-18aH,24H-18,15-(metheno)pyrido[2,1-l]pyrimido[6,1-h][1,4,7,9,10,13]benzoxapentaazacyclohexadecine-7,24(6H)-dione] | 6.3 |
| CCN1CCN(C)c2cc(N3CC(N)C3)nc3cc(nn23)[C@@H]2CCCCN2C(=O)c2cc(F)ccc2OCC1=O [Example 9, (18aS)-13-(3-aminoazetidin-1-yl)-8-ethyl-2-fluoro-11-methyl-8,9,10,11,19,20,21,22-octahydro-18aH,24H-18,15-(metheno)pyrido[2,1-l]pyrimido[6,1-h][1,4,7,9,10,13]benzoxapentaazacyclohexadecine-7,24(6H)-dione] | 6.34 |
| CN1CC(C)(C)NC(=O)COc2ccc(F)cc2C(=O)N2CCCC[C@H]2c2cc3nc(N4CC(N)C4)cc1n3n2 [Example 11, (18aS)-13-(3-aminoazetidin-1-yl)-2-fluoro-9,9,11-trimethyl-8,9,10,11,19,20,21,22-octahydro-18aH,24H-18,15-(metheno)pyrido[2,1-l]pyrimido[6,1-h][1,4,7,9,10,13]benzoxapentaazacyclohexadecine-7,24(6H)-dione] | 1.56 |
| CC1Oc2ccc(F)cc2C(=O)N2CCCCC2c2cc3nc(N4CC(N)C4)cc(n3n2)N(C)CCNC1=O [Example 12, (18aS)-13-(3-aminoazetidin-1-yl)-2-fluoro-6,11-dimethyl-8,9,10,11,19,20,21,22-octahydro-18aH,24H-18,15-(metheno)pyrido[2,1-l]pyrimido[6,1-h][1,4,7,9,10,13]benzoxapentaazacyclohexadecine-7,24(6H)-dione] | ~2 |
| NC1CN(c2cc3n4nc(cc4n2)[C@@H]2CCCCN2C(=O)c2cc(F)ccc2OCC(=O)NCCN3C2CC2)C1 [Example 14, (18aS)-13-(3-aminoazetidin-1-yl)-11-cyclopropyl-2-fluoro-8,9,10,11,19,20,21,22-octahydro-18aH,24H-18,15-(metheno)pyrido[2,1-l]pyrimido[6,1-h][1,4,7,9,10,13]benzoxapentaazacyclohexadecine-7,24(6H)-dione] | 2.31 |
| COc1cc2n3nc(cc3n1)[C@@H]1CCCCN1C(=O)c1cc(F)ccc1OCC(=O)NCCN2C [Example 20, (18aS)-2-fluoro-I 3-methoxy-11-methyl-8,9,10,11,19,20,21,22-octahydro-18aH,24H-18,15-(metheno)pyrido[2,1-l]pyrimido[6,1-h][1,4,7,9,10,13]benzoxapentaazacyclohexadecine-7,24(6H)-dione] | 1.26 |
| CN1CCNC(=O)COc2ccc(F)cc2C(=O)N2CCCC[C@H]2c2cc3nc(CN)cc1n3n2 [Example 25, (18aS)-13-(aminomethyl)-2-fluoro-11-methyl-8,9,10,11,19,20,21,22-octahydro-18aH,24H-18,15-(metheno)pyrido[2,1-l]pyrimido[6,1-h][1,4,7,9,10,13]benzoxapentaazacyclohexadecine-7,24(6H)-dione] | ~14 |
| CCc1ccc2c(c1)C(=O)N1CCCC[C@H]1c1cc3nc(OCCN)cc(n3n1)N(C)CCNC(=O)CO2 [Example 50, (18aS)-13-(2-aminoethoxy)-2-ethyl-1-methyl-8,9,10,11,19,20,21,22-octahydro-18aH,24H-18,15-(metheno)pyrido[2,1-l]pyrimido[6,1-h][1,4,7,9,10,13]benzoxapentaazacyclohexadecine-7,24(6H)-dione] | 2.18 |
| COc1ccc2c(c1)C(=O)N1CCCC[C@H]1c1cc3nc(N4CCC4)cc(n3n1)N(C)CCNC(=O)CO2 [Example 51, (18aS)-13-(azetidin-1-yl)-2-methoxy-11-methyl-8,9,10,11,19,20,21,22-octahydro-18aH,24H-18,15-(metheno)pyrido[2,1-l]pyrimido[6,1-h][1,4,7,9,10,13]benzoxapentaazacyclohexadecine-7,24(6H)-dione] | 1.21 |
| CN1CCNC(=O)COc2ccc(C(C)(F)F)cc2C(=O)N2CCCC[C@H]2c2cc3nc(N4CCC4)cc1n3n2 [Example 54, (18aS)-13-(azetidin-1-yl)-2-(1,1-difluoroethyl)-11-methyl-8,9,10,11,19,20,21,22-octahydro-18aH,24H-18,15-(metheno)pyrido[2,1-l]pyrimido[6,1-h][1,4,7,9,10,13]benzoxapentaazacyclohexadecine-7,24(6H)-dione] | 3.2 |
| Cc1c(N2CC(N)C2)nc2cc3nn2c1N(C)CCNC(=O)COc1ccc(F)cc1C(=O)N1CCCC[C@@H]31 [Example 61, (18aS)-13-(3-aminoazetidin-1-yl)-2-fluoro-11,12-dimethyl-8,9,10,11,19,20,21,22-octahydro-18aH,24H-18,15-(metheno)pyrido[2,1-l]pyrimido[6,1-h][1,4,7,9,10,13]benzoxapentaazacyclohexadecine-7,24(6H)-dione] | 1.77 |
| Cc1c(N2CCC2)nc2cc3nn2c1N(C)CCN(C)C(=O)COc1ccc(F)cc1C(=O)N1CCCC[C@@H]31 [Example 63, (18aS)-13-(azetidin-1-yl)-2-fluoro-8,11,12-trimethyl-8,9,10,11,19,20,21,22-octahydro-18aH, 24H-18,15-(metheno)pyrido[2,1-l]pyrimido[6,1-h][1,4,7,9,10,13]benzoxapentaazacyclohexadecine-7,24(6H)-dione] | 2.49 |
| Cc1c(CCCN)nc2cc3nn2c1N(C)CCNC(=O)COc1ccc(Cl)cc1C(=O)N1CCCC[C@@H]31 [Example 75, (18aS)-13-(3-aminopropyl)-2-chloro-11,12-dimethyl-8,9,10,11,19,20,21,22-octahydro-18aH, 24H-18,15-(metheno)pyrido[2,1-l]pyrimido[6,1-h][1,4,7,9,10,13]benzoxapentaazacyclohexadecine-7,24 (6H)-dione] | 1 |
| Cc1c(CCCCN)nc2cc3nn2c1N(C)CCNC(=O)COc1ccc(Cl)cc1C(=O)N1CCCC[C@@H]31 [Example 78, (18aS)-13-(4-aminobutyl)-2-chloro-11,12-dimethyl-8,9,10,11,19,20,21,22-octahydro-18aH,24H-18,15-(metheno)pyrido[2,1-l]pyrimido[6,1-h][1,4,7,9,10,13]benzoxapentaazacyclohexadecine-7,24(6H)-dione] | 1.7 |
| CN1CCNC(=O)COc2ccc(Cl)cc2C(=O)N2CCCCC2c2cc3nc(N4CC[C@H](N)C4)c(F)c1n3n2 (stereo partly drawn) [Example 87, (18aS)-13-[(3S)-3-aminopyrrolidin-1-yl]-2-chloro-12-fluoro-11-methyl-8,9,10,11,19,20,21,22-octahydro-18aH,24H-18,15-(metheno)pyrido[2,1-l]pyrimido[6,1-h][1,4,7,9,10,13]benzoxapentaazacyclohexadecine-7,24(6H)-dione hydrochloride] | 3.77 |
| [2H]C([2H])([2H])N1CCNC(=O)COc2ccc(F)cc2C(=O)N2CCCC[C@H]2c2cc3nc(C4CC4)cc1n3n2 [Example 94, (18aS)-13-cyclopropyl-2-fluoro-11-trideuteriomethyl-8,9,10,11,19,20,21,22-octahydro-18aH, 24H-18,15-(metheno)pyrido[2,1-l]pyrimido[6,1-h][1,4,7,9,10,13]benzoxapentaazacyclohexadecine-7,24(6H)-dione] | 0.207 |
| CN1CCNC(=O)COc2ccc(I)cc2C(=O)N2CCCC[C@H]2c2cc3nc(C4CC4)cc1n3n2 [Example 97, (18aS)-13-cyclopropyl-2-iodo-1 l-methyl-8,9,10,11,19,20,21,22-octahydro-18aH,24H-18,15-(metheno)pyrido[2,1l-]pyrimido[6,1-h][1,4,7,9,10,13]benzoxapentaazacyclohexadecine-7,24(6H)-dione] | 0.76 |
| CN1CCNC(=O)COc2ccc(C3CC3)cc2C(=O)N2CCCC[C@H]2c2cc3nc(C4CC4)cc1n3n2 [Example 99, (18aS)-2,13-dicyclopropyl-11-methyl-8,9,10,11,19,20,21,22-octahydro-18aH,24H-18,15-(metheno)pyrido[2,1-l]pyrimido[6,1-h][1,4,7,9,10,13]benzoxapentaazacyclohexadecine-7,24(6H)-dione] | 0.571 |
